Measurements reported in the supplement of paper PMC9663587.

Tests used:
[1] = compound: CC(=O)O[C@H]1C(=O)[C@@]2(C)[C@H]([C@H](OC(=O)c3ccccc3)[C@]3(O)C[C@H](OC(=O)[C@H](O)[C@@H](NC(=O)c4ccccc4)c4ccccc4)C(C)=C1C3(C)C)[C@]1(OC(C)=O)CO[C@@H]1C[C@@H]2O [Paclitaxel]
[2] = compound: T1, CC(=O)c1c(C)c2cnc(Nc3ccc(N4CCN(CCOCCOCCOCCNC(=O)COc5cccc6c5C(=O)N(C5CCC(=O)NC5=O)C6=O)CC4)cn3)nc2n(C2CCCC2)c1=O [BSJ-03-123]
[3] = compound: T2, CN1CC[C@H](c2c(O)cc(O)c3c(=O)cc(-c4ccccc4Cl)oc23)[C@H](O)C1 [Flavopiridol]
[4] = compound: CC(C)Nc1cc(-c2c[nH]c(C(=O)N[C@H](CO)c3cccc(Cl)c3)c2)c(Cl)cn1 [BVD523]
[5] = compound: C1=CC2=C(C=CC(=C2)C=C3C(=O)NC(=NCC4=CC=CS4)S3)N=C1 [R0-3306]
[6] = compound: CO[C@@H](C)Cn1c(=O)n(C)c2cnc3ccc(-c4cncc(C(C)(C)O)c4)cc3c21
[7] = compound: CCOc1cc2ncc(C#N)c(Nc3ccc(OCc4ccccn4)c(Cl)c3)c2cc1NC(=O)/C=C/CN(C)C [Neratinib/HKI272]
[8] = compound: CCC1=CN=CN=C1N2CCN(CC2)CC3=NC4=C(N3)C=C(C=C4)C(F)(F)F
[9] = compound: NC1(C(=O)N[C@@H](CCO)c2ccc(Cl)cc2)CCN(c2nc[nH]c3nccc2-3)CC1 [AZD5363]
[10] = compound: C=CC(=O)Nc1ccc(C(=O)Nc2[nH]nc3c2CN(C(=O)N[C@H](CN(C)C)c2ccccc2)C3(C)C)cc1 [YKL-5-124]; assay: GR value, 72 h; higher = faster growth (1 = untreated, <0 = killing);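 note: breast cancer and non-malignant breast epithelial lines, nine half-log doses, viable cells counted by Hoechst and LIVE/DEAD dye imaging versus time-zero plates and DMSO controls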
[11] = compound: T1, BSJ-03-123; assay: as above
[12] = compound: CN(C)C/C=C/C(=O)Nc1ccc(C(=O)Nc2cccc(Nc3ncc(Cl)c(-c4c[nH]c5ccccc45)n3)c2)cc1 [THZ1]; assay: as above
[13] = compound: T2, Flavopiridol; assay: as above
[14] = compound: CCc1cnn2c(NCc3ccc[n+]([O-])c3)cc(N3CCCC[C@H]3CCO)nc12; assay: as above
[15] = compound: CN(C)C(=O)c1cc2cnc(Nc3ccc(N4CCNCC4)cn3)nc2n1C1CCCC1 [LEE011/Ribociclib]; assay: as above
[16] = compound: CN(C)C/C=C/C(=O)Nc1ccc(C(=O)N2CCC[C@@H](Nc3ncc(Cl)c(-c4c[nH]c5ccccc45)n3)C2)cc1 [THZ531]; assay: as above
[17] = compound: CCN1CCN(Cc2ccc(Nc3ncc(F)c(-c4cc(F)c5nc(C)n(C(C)C)c5c4)n3)nc2)CC1; assay: as above
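Throughout, for GR50, 72 h: breast cancer and non-malignant breast epithelial cell lines, Deep Dye Drop or Dye Drop imaging, nine half-log doses, GR normalized to time-zero plates and DMSO-only controls.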

AU565 was tested, and the “GR50, 72 h” value [1] was 0.00163 µM, the “GR50, 72 h” value [2] was 1.21 µM and the “GR50, 72 h” value [3] was 0.09 µM. The “GR50, 72 h” value [4] was over 10 µM, the “GR50, 72 h” value [5] was 0.478 µM and the “GR50, 72 h” value [6] was 0.00478 µM. For the same cell line, the “GR50, 72 h” value [7] was 0.00121 µM, the “GR50, 72 h” value [8] was 9.42 µM and the “GR50, 72 h” value [9] was 5.83 µM. The GR value ([10]; 0.001 µM) was 0.305 GR, the GR value ([10]; 0.003162 µM) was 0.28 GR and the GR value ([10]; 0.01 µM) was 0.128 GR. It also gave a GR value ([10]; 0.03162 µM) of 0.0651 GR, a GR value ([10]; 0.1 µM) of -0.0212 GR and a GR value ([10]; 0.3162 µM) of -0.0588 GR. The GR value ([10]; 1 µM) was -0.111 GR, the GR value ([10]; 3.162 µM) was -0.172 GR and the GR value ([10]; 10 µM) was -0.563 GR. The GR value ([11]; 0.001 µM) was 0.962 GR, the GR value ([11]; 0.003162 µM) was 0.875 GR and the GR value ([11]; 0.01 µM) was 0.791 GR. The GR value ([11]; 0.03162 µM) was 0.759 GR, the GR value ([11]; 0.1 µM) was 0.833 GR and the GR value ([11]; 0.3162 µM) was 0.775 GR. The GR value ([11]; 1 µM) was 0.41 GR, the GR value ([11]; 3.162 µM) was 0.52 GR and the GR value ([11]; 10 µM) was -0.386 GR. It also gave a GR value ([12]; 0.0001 µM) of 0.903 GR, a GR value ([12]; 0.0003162 µM) of 1.02 GR and a GR value ([12]; 0.001 µM) of 0.972 GR. For the same cell line, the GR value ([12]; 0.003162 µM) was 0.84 GR, the GR value ([12]; 0.01 µM) was 0.797 GR and the GR value ([12]; 0.03162 µM) was 0.225 GR. For the same cell line, the GR value ([12]; 0.1 µM) was -0.325 GR, the GR value ([12]; 0.3162 µM) was -0.547 GR and the GR value ([12]; 1 µM) was -0.653 GR. For the same cell line, the GR value ([13]; 0.0001 µM) was 1.11 GR, the GR value ([13]; 0.0003162 µM) was 1.02 GR and the GR value ([13]; 0.001 µM) was 0.906 GR. It also gave a GR value ([13]; 0.003162 µM) of 0.852 GR, a GR value ([13]; 0.01 µM) of 1 GR and a GR value ([13]; 0.03162 µM) of 0.858 GR. For the same cell line, the GR value ([13]; 0.1 µM) was 0.472 GR, the GR value ([13]; 0.3162 µM) was -0.198 GR and the GR value ([13]; 1 µM) was -0.69 GR. It also gave a GR value ([14]; 0.0001 µM) of 0.954 GR, a GR value ([14]; 0.0003162 µM) of 0.978 GR and a GR value ([14]; 0.001 µM) of 0.974 GR. It also gave a GR value ([14]; 0.003162 µM) of 0.928 GR, a GR value ([14]; 0.01 µM) of 0.19 GR and a GR value ([14]; 0.03162 µM) of -0.568 GR. The GR value ([14]; 0.1 µM) was -0.734 GR, the GR value ([14]; 0.3162 µM) was -0.746 GR and the GR value ([14]; 1 µM) was -0.767 GR. For the same cell line, the GR value ([15]; 0.001 µM) was 0.82 GR, the GR value ([15]; 0.003162 µM) was 0.739 GR and the GR value ([15]; 0.01 µM) was 0.645 GR. For the same cell line, the GR value ([15]; 0.03162 µM) was 0.742 GR, the GR value ([15]; 0.1 µM) was 0.569 GR and the GR value ([15]; 0.3162 µM) was 0.546 GR. The GR value ([15]; 1 µM) was 0.487 GR, the GR value ([15]; 3.162 µM) was 0.425 GR and the GR value ([15]; 10 µM) was 0.227 GR. For the same cell line, the GR value ([16]; 0.0001 µM) was 0.925 GR, the GR value ([16]; 0.0003162 µM) was 0.936 GR and the GR value ([16]; 0.001 µM) was 0.948 GR. It also gave a GR value ([16]; 0.003162 µM) of 0.994 GR, a GR value ([16]; 0.01 µM) of 1.05 GR and a GR value ([16]; 0.03162 µM) of 0.786 GR. For the same cell line, the GR value ([16]; 0.1 µM) was 0.0998 GR, the GR value ([16]; 0.3162 µM) was -0.343 GR and the GR value ([16]; 1 µM) was -0.521 GR. For the same cell line, the GR value ([17]; 0.001 µM) was 0.876 GR, the GR value ([17]; 0.003162 µM) was 0.791 GR and the GR value ([17]; 0.01 µM) was 0.605 GR. The GR value ([17]; 0.03162 µM) was 0.382 GR, the GR value ([17]; 0.1 µM) was 0.268 GR and the GR value ([17]; 0.3162 µM) was 0.223 GR. For the same cell line, the GR value ([17]; 1 µM) was 0.114 GR, the GR value ([17]; 3.162 µM) was 0.0465 GR and the GR value ([17]; 10 µM) was -0.328 GR.
